Measured values: patent US12714719B2, “Cannabinoids, pharmaceutical compositions comprising same and uses thereof” (TECHNION RESEARCH AND DEVELOPMENT FOUNDATION LIMITED, priority 2020, dated 2026)

Columns and labels:
DBTRG-05MG cells = assay: Hoechst / Propidium Iodide cell death imaging; format: cell-based; conditions: 24 hours; for % of cell death, effect of adding the cannabinoid to CBD: DBTRG-05MG, purified cannabinoids at content of extract 2, 4 and 8 μg/ml, compared with CBD alone
Method: The effects of cannabinoids on the survival of tolerant glioblastoma (GBM) cancer cells harboring a NOTCH 4 mutation were examined.
DBTRG-05MG cells were cultured in 96 well plate (1×10^5 cells/well) until confluency and treated with DMSO as control, pure cannabidiol (CBD), and extracts CAN12 and CAN26 with increasing concentrations from 1 to 4 μg/ml (FIG. 2A).
In another experiment, cells were cultured in 96 well plate (1×10^5 cells/well) until confluency and treated for 24 hours with three molecules (CBD, CBDV and CF1) as compared to the whole extract. The treatments were performed using three extract concentrations: 2, 4 and 8 μg/ml (FIG. 2B). After 24 hours, cells were stained with Hoechst and Propidium Iodide (PI) and imaged by IXM micro system (Molecular Devices) in 10× magnification. Live and dead cells were analyzed by MetaXpress® software (Molecular Devices) and presented as percentages of cell death from total cells. The purified phytocannabinoids were diluted to contain the same content as in the extract, then were provided according to the extract concentrations.

Molt-4 cells = assay: AlamarBlue (resazurin) viability assay; format: cell-based
Method: Dose-dependent AlamarBlue® (resazurin) viability assays were performed on Molt-4 cells treated with different concentrations of three phytocannabinoids (CBD, CBDV and CF1) at different ratios, as shown in Table 2.
In order to determine the effect of cannabinoids on the reduction of the survival rate of cancer cells, dose-dependent AlamarBlue® (resazurin) viability assays were then performed on Molt-4 cells treated with single cannabinoids or a combination of two cannabinoids at the same concentration as that of the three phytocannabinoids present in the whole extract, as shown in Table 3. Particularly, CF1 alone, or in combination with one additional cannabinoid was examined to determine its capability to induce apoptosis of cancer cells.

SMILES	% of cell death (DBTRG-05MG cells; GBM DBTRG-05MG cells harboring a NOTCH 4 mutation, vs DMSO)	% of cell death, effect of adding the cannabinoid to CBD (DBTRG-05MG cells)	inducing cancer cells death (Molt-4 cells; Molt-4, CF1 alone as a single cannabinoid (1a, 0.62 ng/μl))	potency among the three cannabinoids (CBD, CBDV, CF1) (Molt-4 cells; Molt-4, Table 3 compositions)
C=C(C)[C@@H]1CCC(C)=C[C@H]1c1c(O)cc(CCCCC)cc1O [CBD, cannabidiol]	increased			
C=C(C)[C@@H]1CCC(C)=C[C@H]1c1c(O)cc(CCC)cc1O [CBDV, cannabidivarin]		improved the activity of CBD alone		
CCCCCc1cc(O)c(C2C=C(C)CCC2C(C)(C)O)c(O)c1 [CF1, 1,3-benzenediol,2-[(1R,6R)-6-(1-hydroxy-1-methylethyl)-3-methyl-2cyclohexen-1-yl]-5-pentyl]		improved the activity of CBD alone	showed efficacy	most potent
